Results on two compounds are retold here after patent US11419913B2, “Pharmaceutical compositions for inhibiting inflammatory cytokines” (S.I.S. SHULOV INNOVATIVE SCIENCE LTD., priority 2018, dated 2022).

Where a SMILES comes first, the peptide text is derived from it. [ ]: non-standard residue; d: D form. The star is where a group is joined. pGlu = O=C1CC[C@@H](C(=O)O)N1; Octanoyl = CCCCCCCC(=O)*

Assay [1] has as its system IL-1beta. The experiment in a line: Expression of IL-1 beta by Nigericin-activated macrophages. The following applies: ZEP4 50 μg/mL, LPS 100 ng/mL, Nigericin 20 mM. The class given is cell-based, mouse. More on the design: IL-1beta: unit not given here. The protocol: Macrophage cells originating from C7BL/6 mice were cultured at a density of 200,000 cells/mL in a 24-well plate (500 μl wells) and incubated at 37° C. and […] overnight. Following the overnight incubation, media were replaced with fresh media containing 100 ng/mL LPS. Three hours later, the LPS-containing media were replaced with fresh media containing 50 μg/ml ZEP4 to treatment wells. Following one-hour incubation, Nigericin (20 mM) aliquots were added to the ZEP4 treated and LPS control wells. The plates were incubated for additional 24 hour and the amount of IL-1beta in each well was measured. Reduction in […] production in the treatment group was calculated relative to cells treated with LPS and nigericin (LPS+N).

Assay [2] has as its system IL-10. Description: IL-10 production in LPS-stimulated human PBMCs. The class given is cell-based. Conditions: ZEP3 40, 100 and 150 μg/ml, 1 hr pre-treatment, LPS 24 hours; 4 donors. On the procedure:
The effect of the peptide ZEP3 (SEQ ID NO: 1) on cytokine production was evaluated in an in vitro human model of inflammation. Human Peripheral Blood Mononuclear Cells (PBMCs) were stimulated using Lipopolysaccharide (LPS) to produce cytokines.
Method: Briefly, cryopreserved human PBMCs of four healthy non-smokers, not on any corticosteroids or other inflammatory drugs, were grown in RPMI 1640 with 10% heat inactivated fetal bovine serum (FBS), 100 U/ml penicillin and 100 μg/mL streptomycin (complete growth medium, CGM).
Human PBMCs were thawed and plated for all groups (1-6, Table 7), and rested for 1 hour before treatment. […] 24 hours post LPS addition, Almar Blue fluorescent at 585 nm (correlating with cell viability), is measured and supernatant is collected for cytokine determination. […]
Detailed method: cells were thawed according to manufacturer's instructions, washed in CGM and assessed for viability using trypan blue staining. […] At 24 hours post LPS stimulation, plates were read for assessment of cell viability and cell culture supernatants were harvested and stored at −80° C. for cytokine analysis. […] Cytokine production and percentage of sample stimulation vs. the average of the stimulation control were calculated.

As for `C[C@@H](O)[C@H](NC(=O)[C@H](Cc1c[nH]c2ccccc12)NC(=O)[C@H](CC(N)=O)NC(=O)[C@@H]1CCC(=O)N1)C(=O)O` [ZEP4, pGlu-Asn-Trp-Thr-OH] (HELM PEPTIDE1{[Glp].N.W.T}$$$$V2.0), the IL-1beta in assay [1] (24 hour) stood at 157.1. The “% reduction of IL-1beta” value in assay [1] (relative to LPS and nigericin (LPS+N)) is 53.8%.
As for `CCCCCCCC(=O)NCCCC[C@H](NC(=O)[C@H](Cc1c[nH]c2ccccc12)NC(=O)[C@H](CC(N)=O)NC(=O)[C@@H]1CCC(=O)N1)C(=O)O` [ZEP3, pGlu-Asn-Trp-Lys(Octanoyl)-OH] ([pGlu]NWK(Octanoyl)-OH), in assay [2], the “IL-10 production (FIG. 10)” value is on record as “significant reduction”.
